Laboratory results from patent publication US20250255856A1, “THERAPEUTIC COMPOSITIONS WITH IMINO SUGARS FOR THE TREATMENT OF DISEASES WITH ACCUMULATION OF HEPARAN SULFATE” (priority 2022, published 2025).
Where a name gives a salt, the structure may show the parent alone.

Assays:
[1] = system: HeLa tumor epithelial cells; assay: HeLa cell proliferation assay; type: cell-based; conditions: after 48 hours
Method: Furthermore, treatment with the L-deoxyminosugars L-DNJ, L-NBDNJ, L-AMPDNM and L-MONDNJ caused a decrease of the number of HeLa cells after 48 hours as shown by the cell proliferation assay reported in Table 6.

[2] = system: human adult dermal fibroblasts HDFa; assay: HS and Lamp1 immunofluorescence in control fibroblasts HDFa; type: cell-based; conditions: 20 μM, 48 hours
Method: (§1) To verify whether the selected iminosugars could exert the same effects also on the fibroblasts of patients affected by Sanfilippo disease, human adult dermal fibroblasts HDFa (purchased from Sigma-Aldrich) were used as control, and fibroblasts of patients affected by Sanfilippo A and B (MPS IIIA and IIIB) were used as disease model.
(§2) Cells were cultured in the presence of the selected L-iminosugars at a dosage of 20 μM and after 48 hours were treated for HS and Lamp1 immunofluorescence. Treatment with L-iminosugars had no effect on control HDFa (Table 3).
(§3) Cells were grown in the presence of the iminosugars D-DNJ, D-NBDNJ, D-AMPDNM and D-MONDNJ at the dosage of 20 μM and after 48 hours were treated for HS and Lamp1 immunofluorescence. Treatment with D-iminosugars had no effect on HDFa and fibroblasts of patients affected by Sanfilippo A and B (MPS IIIA and MPS IIIB) both on HS and lysosome accumulation (Table 4).

[3] = system: NAGLU-silenced clone (cl5) of human neuroblastoma cell line SK-NBE; assay: Immunofluorescence against beta-amyloid peptide 1-42 in NAGLU-silenced SK-NBE clone; type: cell-based; conditions: 20 μM, 48 hours
Method: The clone (c15) stably silenced for NAGLU, the causative gene of MPS IIIB, is able to mimic the features of neurodegenerative diseases as it accumulates beta-amyloid fibers in the cytoplasm. In fact, Sanfilippo Syndrome is also defined as “childhood Alzheimer”.
The diseased clone (c15) was grown in the presence of L-DNJ, L-NBDNJ, L-AMPDNM and L-MONDNJ and the corresponding enantiomers D-DNJ, D-NBDNJ, D-AMPDNM and D-MONDNJ at a dosage of 20 μM and after 48 hours were processed by immunofluorescence against the beta-amyloid peptide 1-42. […] On contrary, treatment with the corresponding D-enantiomers has no effect on the reduction of the accumulation of amyloid fibers compared to the untreated clone (mock) (Table 7).

[4] = system: fibroblasts of patients affected by Sanfilippo A (MPS IIIA); assay: HS and Lamp1 immunofluorescence in Sanfilippo A patient fibroblasts; type: cell-based, human; conditions: 20 μM, 48 hours; for Effect on HS and lysosome (Lamp1) accumulation, in words: Sanfilippo A (MPS IIIA) patient fibroblasts
Source text: as §1
(§4) The human cell lines, fibroblasts, from patients with MPS (Sanfilippo disease) used in the examples were obtained from the G. Gaslini Institute of Genoa, “Cell Line and DNA Biobank from Patients Affected by Genetic Diseases”-Telethon Genetic Biobank Network—Telethon research service. These cells are classified with identification codes and by type of disease without allowing patient identification. Cells were collected from the patients, at the Gaslini Institute, with informed consent to the collection extended to conservation and its possible use, for diagnosis and/or research purposes according to current legislation as required by the guidelines followed by the Telethon biobanks. The Network operates abiding by the Italian Privacy and Data Protection Laws in force, including: Italian Data Protection Authority, Personal Data Protection Code, Legislative Decree no. 196, 30 Jun. 2003, published in Official Gazette No. 174 of the Italian Republic, 29 Jul. 2003; Italian Data Protection Authority, General Authorization for the processing of genetic data, 24 Jun. 2011, published in Official Gazette No. 159 of Italian Republic, 11 Jul. 2011.
as §2, §3

[5] = system: patients with MPS III; conditions: cited from earlier work
[6] = system: fibroblasts of patients affected by Sanfilippo B (MPS IIIB); assay: HS and Lamp1 immunofluorescence in Sanfilippo B patient fibroblasts; type: cell-based, human; conditions: 20 μM, 48 hours; for Effect on HS and lysosome (Lamp1) accumulation, in words: Sanfilippo B (MPS IIIB) patient fibroblasts
Source text: as §1, §4, §2, §3

[7] = system: control clone (WT) of human neuroblastoma cell line SK-NBE; assay: Lamp1 immunofluorescence in control (WT) SK-NBE clone; type: cell-based; conditions: 20 μM, 48 hours
Source text: (§5) To study the effects of the compounds on the lysosomal dysfunctions in a neuronal model of Sanfilippo B disease (MPS IIIB), we recently generated stable clones of the human neuroblastoma cell line SK-NBE silenced for the NAGLU gene causative of MPS IIIB [De Pasquale V, et al. (2021). Biochim Biophys Acta Mol Cell Res. 1868, 119113.]. Mimicking the features of Sanfilippo B disease, silencing of NAGLU causes accumulation of heparan sulfate and accumulation of lysosomes in the cytoplasm of stable SK-NBE clones compared to the control (WT) clone.
(§6) Therefore, NAGLU-silenced clone (c15) and control clone (WT) were selected to test the effect of L-deoxyminosugars (L-DNJ, L-NBDNJ, L-NNDNJ, L-HPDNJ, L-NPDNJ, L-AMPDNM and L-MONDNJ) in the hydrochloride form on the lysosomal phenotype of our cell model of Sanfilippo B (MPS IIIB).
(§7) Clone 5 was cultured in the presence of 20 μM of each L-deoxyminosugar under normal growth conditions and after 48 hours the lysosomal accumulation was evaluated with immunofluorescence technique by using a specific antibody against Lamp1 (lysosomal marker). […] Furthermore, upon treatment with the active L-deoxyminosugar the lysosomes are no longer concentrated in the perinuclear region of the cells, as occurs in several lysosomal diseases, but they are physiologically distributed throughout the cytoplasm.

[8] = system: NAGLU-silenced clone (cl5) of human neuroblastoma cell line SK-NBE; assay: Heparan sulfate (HS) immunofluorescence in NAGLU-silenced SK-NBE clone, Sanfilippo B model; type: cell-based; conditions: 48 hours; for Cells positive for HS (%) / Relative HS fluorescence intensity: cl5 clone, 20 μM; for Effect on HS staining / HS accumulation, in words: clone 5, 20 μM
Source text: as §5
Clone 5 was grown in the presence of 20 μM of each L-iminosugar under normal growth conditions and after 48 hours the accumulation of heparan sulfate (HS) was evaluated by immunofluorescence staining for HS.

[9] = system: NAGLU-silenced clone (cl5) of human neuroblastoma cell line SK-NBE; assay: Lamp1 immunofluorescence (lysosomal accumulation) in NAGLU-silenced SK-NBE clone, Sanfilippo B model; type: cell-based; conditions: 48 hours; for Cells positive for Lamp1 (%) / Relative Lamp1 fluorescence intensity: cl5 clone, 20 μM; for Effect on lysosomal enlargement and accumulation (lysosomal phenotype), in words: clone 5, 20 μM
Source text: as §5, §6, §7

[10] = system: HeLa tumor epithelial cells; assay: HS immunostaining in HeLa cells; type: cell-based; conditions: 48 hours
Method: To test whether treatment with the selected L-deoxyminosugars (L-DNJ, L-NBDNJ, L-AMPDNM and L-MONDNJ) could interfere with HS synthesis we selected a cell line not mutated for NAGLU and highly decorated by heparan sulfate on the cell membrane. For this purpose, HeLa tumor epithelial cells (purchased from ATCC) were cultured for 48 hours in the presence of the selected L-iminosugars and the amount of HS was evaluated by immunostaining.

[11] = system: control clone (WT) of human neuroblastoma cell line SK-NBE; assay: Heparan sulfate (HS) immunofluorescence in control (WT) SK-NBE clone; type: cell-based; conditions: 20 μM, 48 hours

## CCCCN1C[C@H](O)[C@@H](O)[C@H](O)[C@H]1CO [D-NBDNJ•HCl]
[1]
  Cell number: 4.2 · 10^5
[2]
  Cells positive for HS (%): 4.8%
  Cells positive for Lamp1 (%): 5.0%
[3]
  Relative amyloid fluorescence intensity: 0.98
[4]; MPS-IIIA fibroblasts
  Cells positive for HS (%): 99.7%
  Cells positive for Lamp1 (%): 94.7%
[5]
  Clinical efficacy in MPS III patients, in words: no beneficial effects
[6]; MPS-IIIB fibroblasts
  Cells positive for HS (%): 95.2%
  Cells positive for Lamp1 (%): 93.8%

## OC[C@@H]1NC[C@@H](O)[C@H](O)[C@H]1O [L-DNJ•HCl]
[1]
  Cell number: 2.9 · 10^5
  Effect on the number of HeLa cells, in words: decrease
[2]
  Relative fluorescence intensity compared to HDFa, HS: 1.0
  Relative fluorescence intensity compared to HDFa, Lamp1: 1.0
[3]
  Relative amyloid fluorescence intensity: 0.01
[7]
  Cells positive for Lamp1 (%): 2.8%
  Relative Lamp1 fluorescence intensity: 1.00
[8]
  Cells positive for HS (%): 5.1%
  Relative HS fluorescence intensity: 1.20
  Effect on HS staining / HS accumulation, in words: dramatic reduction
[4]; MPS-IIIA fibroblasts
  Relative fluorescence intensity compared to HDFa, HS: 1.0
  Relative fluorescence intensity compared to HDFa, Lamp1: 1.8
[4]
  Effect on HS and lysosome (Lamp1) accumulation, in words: strong reduction
[9]
  Cells positive for Lamp1 (%): 25%
  Relative Lamp1 fluorescence intensity: 0.95
  Effect on lysosomal enlargement and accumulation (lysosomal phenotype), in words: dramatic reduction
[10]
  Effect on HS accumulation on the HeLa cell membrane, in words: strong reduction
  Relative HS fluorescence intensity: 0.24
[11]
  Cells positive for HS (%): 2.6%
  Relative HS fluorescence intensity: 0.94
[6]; MPS-IIIB fibroblasts
  Relative fluorescence intensity compared to HDFa, HS: 1.0
  Relative fluorescence intensity compared to HDFa, Lamp1: 1.0
[6]
  Effect on HS and lysosome (Lamp1) accumulation, in words: strong reduction

## CCCCN1C[C@@H](O)[C@H](O)[C@@H](O)[C@@H]1CO [L-NBDNJ•HCl, N-butyl-L-deoxynojirimycin]
[1]
  Cell number: 3.6 · 10^5
  Effect on the number of HeLa cells, in words: decrease
[2]
  Relative fluorescence intensity compared to HDFa, HS: 1.0
  Relative fluorescence intensity compared to HDFa, Lamp1: 1.0
[3]
  Relative amyloid fluorescence intensity: 0.01
[7]
  Cells positive for Lamp1 (%): 2.6%
  Relative Lamp1 fluorescence intensity: 1.07
[8]
  Cells positive for HS (%): 7.4%
  Relative HS fluorescence intensity: 1.13
  Effect on HS staining / HS accumulation, in words: dramatic reduction
[4]; MPS-IIIA fibroblasts
  Relative fluorescence intensity compared to HDFa, HS: 1.7
  Relative fluorescence intensity compared to HDFa, Lamp1: 1.9
[4]
  Effect on HS and lysosome (Lamp1) accumulation, in words: strong reduction
[9]
  Cells positive for Lamp1 (%): 20%
  Relative Lamp1 fluorescence intensity: 0.97
  Effect on lysosomal enlargement and accumulation (lysosomal phenotype), in words: dramatic reduction
[10]
  Effect on HS accumulation on the HeLa cell membrane, in words: strong reduction
  Relative HS fluorescence intensity: 0.26
[11]
  Cells positive for HS (%): 2.5%
  Relative HS fluorescence intensity: 0.96
[6]; MPS-IIIB fibroblasts
  Relative fluorescence intensity compared to HDFa, HS: 1.5
  Relative fluorescence intensity compared to HDFa, Lamp1: 1.0
[6]
  Effect on HS and lysosome (Lamp1) accumulation, in words: strong reduction

## O=c1c(-c2ccc(O)cc2)coc2cc(O)cc(O)c12 [genistein]
[5]
  Clinical efficacy in MPS III patients, in words: ineffective

## OC[C@H]1[C@H](O)[C@@H](O)[C@H](O)CN1CCCCCOCC12CC3C[C@H](C1)C[C@H](C3)C2 [L-AMPDNM•HCl, N-adamantanomethoxypentyl L-DNJ]
[1]
  Cell number: 3.7 · 10^5
  Effect on the number of HeLa cells, in words: decrease
[2]
  Relative fluorescence intensity compared to HDFa, HS: 1.0
  Relative fluorescence intensity compared to HDFa, Lamp1: 1.0
[3]
  Relative amyloid fluorescence intensity: 0.02
[7]
  Cells positive for Lamp1 (%): 2.5%
  Relative Lamp1 fluorescence intensity: 1.08
[8]
  Cells positive for HS (%): 5.1%
  Relative HS fluorescence intensity: 1.19
  Effect on HS staining / HS accumulation, in words: dramatic reduction
[4]; MPS-IIIA fibroblasts
  Relative fluorescence intensity compared to HDFa, HS: 1.5
  Relative fluorescence intensity compared to HDFa, Lamp1: 2.2
[4]
  Effect on HS and lysosome (Lamp1) accumulation, in words: strong reduction
[9]
  Cells positive for Lamp1 (%): 18%
  Relative Lamp1 fluorescence intensity: 0.99
  Effect on lysosomal enlargement and accumulation (lysosomal phenotype), in words: dramatic reduction
[10]
  Effect on HS accumulation on the HeLa cell membrane, in words: strong reduction
  Relative HS fluorescence intensity: 0.12
[11]
  Cells positive for HS (%): 2.3%
  Relative HS fluorescence intensity: 0.94
[6]; MPS-IIIB fibroblasts
  Relative fluorescence intensity compared to HDFa, HS: 1.0
  Relative fluorescence intensity compared to HDFa, Lamp1: 1.0
[6]
  Effect on HS and lysosome (Lamp1) accumulation, in words: strong reduction
